In US20100196476A1, “PROCESS FOR THE PREPARATION AND PHARMACEUTICAL FORMULATIONS FOR 4-QUINOLINONES AND QUINOLINES AND USE THEREOF” (FUNDACAO UNIVERSIDADE FEDERAL DE SAO CARLOS, priority 2007, published 2010):

Key:
[1] = tested on: coagulant serine proteases; test: initial screening, coagulant activity of snake venoms; assay type: biochemical, Bothrops jararacussu, B. moojeni, B. alternatus; conditions: first screening assay, FIG. 2
Experimental: (§1) This screening was for the venoms of the Bothrops jararacussu, B. moojeni, B. alternatus and B. jararacussu BjussuMP-I snakes to determine promising compounds.
(§2) Aliquots of plasma (0.2 mL) were incubated with venom or venom/inhibitor (50 μL) in varying proportions (m/m) during a period of 30 minutes at 37° C. and the coagulation time was verified. The control tubes included plasma incubated with phosphate buffered saline solution (PBS)+calcium or dimethyl sulphoxide or only the compound.

[2] = tested on: haemorrhagic metalloprotease of the venoms; test: initial screening, haemorrhagic metalloprotease of the venoms; parameters: species or system Bothrops jararacussu, B. moojeni, B. alternatus; conditions: first screening assay, FIG. 2
From the text: as §1

[3] = tested on: venom of Bothrops and the isolated metalloprotease; test: haemorrhage induced by Bothrops venoms and isolated metalloprotease (FIG. 3A); assay type: in vivo; conditions: venom of Bothrops and Crotalus snakes and isolated metalloprotease
Experimental: FIG. 3A: Effect of compound 2 on the haemorrhage induced by the venom of Bothrops and the isolated metalloprotease. FIG. 3B: Effect of compound 2 on the proteolytic activity induced by the venom of Bothrops and the isolated metalloprotease. FIG. 3C: Effect of the coagulant activity of compound 2 induced by the venoms of Bothrops and Crotalus and the isolated serine protease. The results are expressed by the mean±standard deviation (SD) (n=6).
Therefore, further assays were performed to determine the efficiency of compound 2 for various other activities. FIG. 3A presents the effects of 2 on haemorrhages induced by the different venoms of the Bothrops genus snakes and an isolated metalloprotease.

[4] = tested on: snake venoms and isolated metalloprotease; test: proteolytic activity in casein (FIG. 3B); assay type: biochemical, Bothrops; conditions: induced by snake venoms and isolated metalloprotease
[5] = molecular target: Class I metalloprotease neuwiedase (Bothrops pauloensis, UniProt Q9I9R4); assay type: biochemical, B. neuwiedi
Sequence of Class I metalloprotease neuwiedase (Q9I9R4 whole entry, looked up): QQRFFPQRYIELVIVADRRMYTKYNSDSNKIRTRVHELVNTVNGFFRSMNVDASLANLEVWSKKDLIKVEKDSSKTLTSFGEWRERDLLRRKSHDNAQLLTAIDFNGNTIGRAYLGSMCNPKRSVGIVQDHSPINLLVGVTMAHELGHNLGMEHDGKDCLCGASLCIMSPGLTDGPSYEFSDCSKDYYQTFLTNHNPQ

[6] = tested on: snake venoms and isolated serine protease; test: coagulant activity in human plasma (FIG. 3C); assay type: biochemical, Bothrops and Crotalus; conditions: induced by snake venoms and isolated serine protease
Experimental: as §2

[7] = tested on: venom of B. jararacussu (BjussuSP-I); test: coagulant activity, B. jararacussu venom; assay type: biochemical; conditions: FIG. 3C
Experimental: as §2

[8] = tested on: venom of C. d. terrificus (gyroxin); test: coagulant activity, C. d. terrificus venom; assay type: biochemical; conditions: FIG. 3C
Experimental: as §2

[9] = tested on: venom of B. jararacussu, BjussuSP-I and BjussuMP-I; test: fibrinogenolytic activity on bovine fibrinogen, SDS-PAGE (FIG. 4A); assay type: biochemical; conditions: enzymes incubated with inhibitor 30 minutes at 37° C., 1:10 by mass
Experimental: Lanes: 1—Fibrinogen+venom of B. jararacussu (4 μg)+2 (40 μg); 2—Fibrinogen+enzyme BjussuSP-I (2 μg)+2 (20 μg); 3—Fibrinogen+BjussuMP-I (2 μg)+2 (20 μg); 4—Fibrinogen control. The enzymes were incubated together with 2 for 30 minutes at 37° C. The results are expressed by the mean±S.D (n=3). (B): Interaction between the venom of the B. jararacussu snake and 2. Samples containing venom/toxin (20 μg) and the […] (600 μg) were incubated for 30 minutes at 37° C. at a ratio of 1:30 (w/w). Lanes: 1—BthTX-I+2; 2—BthTX-II+2; 3—venom of B. jararacussu+2; 4—only BthTX-I; 5—only BthTX-II; 6—only the venom of B. jararacussu.

[10] = tested on: venoms and isolated PLA2s; test: myotoxic activity in mice (plasma CK); assay type: in vivo; conditions: induced by venoms of B. jararacussu and C. durissus terrificus and isolated PLA2s
[11] = tested on: venoms and isolated PLA2s; test: oedema inducing activity in mice; assay type: in vivo; conditions: induced by venoms of B. jararacussu and C. durissus terrificus and isolated PLA2s
Experimental: The oedemas are induced by the direct injection of venom (20 μg) and purified proteins (20 μg) into the right leg of male Swiss mice (18-22 g). Inhibition activity is verified incubating the venom or isolated protein with the inhibitor in varying concentrations (m/m). The control groups are injected with 50 μL of phosphate buffered saline solution (PBS, pH=7.2) alone, dimethyl sulphoxide (DMSO) or the compounds. Oedema progression is assessed through measurement of the […] using a pachymeter (Mitutoyo, Japan) at intervals of 30 and 60 minute after injection.

[12] = tested on: venoms and isolated PLA2s; test: phospholipase A2 activity (indirect haemolytic); assay type: biochemical; conditions: induced by venoms of B. jararacussu and C. durissus terrificus and isolated PLA2s
Experimental: (§3) Indirect haemolytic activity is tested using agarose-erythrocyte-egg yolk gel as a substrate. The compounds are tested following incubation with the pure venoms or PLA2 in varying ratios (m/m).

[13] = tested on: basic Asp49 PLA2s (BthTX-II and CB); test: phospholipase A2 activity, basic Asp49 PLA2s; assay type: biochemical, B. jararacussu and C. d. terrificus; conditions: compared with pure venoms and acid isoform Asp49 BthA-1-PLA2, FIG. 5C
Experimental: as §3

O=c1cc(CO)[nH]c2ccccc12 [Compound 1, 2-hydroxymethyl-1,4-dihydro-4-quinolinone]
inhibition of coagulant serine proteases [1]: partial inhibition

COc1ccc2[nH]c(CO)cc(=O)c2c1 [Compound 2, 2-hydroxymethyl-6-methoxy-1,4-dihydro-4-quinolinone]
inhibition of coagulant serine proteases [1]: partial inhibition
inhibition of the haemorrhagic metalloprotease of the venoms [2]: potential of inhibiting
effect on haemorrhages induced by venom [3]: inhibits
inhibition of proteolytic activity on casein [4]: significantly inhibits
inhibition of proteolytic activity [5]: approximately 67%
inhibition of coagulant activity in human plasma [6]: significantly inhibits
action on coagulation [7]: powerful coagulation action
action on coagulation [8]: powerful coagulation action
inhibition of fibrinogenolytic activity [9]: inhibition
effect on myotoxicity [10]: partially reduced
effect on oedema [11]: partially reduced
effect on activity for phospholipase [12]: partially reduced
neutralising PLA2 activity [13]: more efficient

CCOc1cc(CO)nc2ccc(OC)cc12 [Compound 10, 4-ethoxy-2-hydroxymethyl-6-methoxyquinoline]
inhibition of coagulant serine proteases [1]: partial inhibition

CCOCc1cc(OCC)c2cc(OC)ccc2n1 [Compound 11, 4-ethoxy-2-ethoxymethyl-6-methoxyquinoline]
inhibition of coagulant serine proteases [1]: partial inhibition

O=C(O)c1cn(C2CC2)c2cc(N3CCNCC3)c(F)cc2c1=O [Compound 13, 1-ciclopropyl-6-fluoro-1,4-dihydro-4-oxo-7-(1-piperazinyl)-3-quinolinecarboxylic acid, reference compound]
inhibition of coagulant serine proteases [1]: partial inhibition
